Assay results from the supplement of paper PMC4862054.
Where “and” joins values, the source holds several entries; their conditions need not be identical. Identical values can stand only once.

How the values were obtained:
Test in all cases: normalised viability (% of control), CellTiter-Blue; higher = more viable cells (about 100 = DMSO control)
Conditions in all cases: incubation time: 72 h
[1] = test system: HCC1937
Description: (§1)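 DSRT, CellTiter-Blue viability, 72 h incubation. Signal is normalised to DMSO and benzethonium chloride controls. Value is the normalised response at dose 3.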

[2] = test system: HCC1599
Description: as §1

[3] = test system: Hs578T
Description: as §1

[4] = test system: DU-4475
Description: as §1

[5] = test system: CAL-85-1
Description: as §1

[6] = test system: CAL-51
Description: as §1

[7] = test system: SK-BR-3
Description: as §1

[8] = test system: MDA-MB-453
Description: as §1

[9] = test system: MDA-MB-231
Description: as §1

[10] = test system: CAL-120
Description: as §1

[11] = test system: MDA-MB-468
Description: as §1

[12] = test system: CAL-148
Description: as §1

SMILES	normalised viability ([1]; 100 nM) [%]	normalised viability ([2]; 100 nM) [%]	normalised viability ([3]; 100 nM) [%]	normalised viability ([4]; 10 nM) [%]	normalised viability ([5]; 10 nM) [%]	normalised viability ([6]; 10 nM) [%]	normalised viability ([7]; 100 nM) [%]	normalised viability ([8]; 10 nM) [%]	normalised viability ([9]; 100 nM) [%]	normalised viability ([10]; 100 nM) [%]	normalised viability ([11]; 100 nM) [%]	normalised viability ([12]; 10 nM) [%]	also measured
CC(=O)c1c(C)c2cnc(Nc3ccc(N4CCNCC4)cn3)nc2n(C2CCCC2)c1=O	97.2	88.2	66.3	107	102	107	78	104	88.5	73.8	105	91.3	–
Cn1cc(C2=Nc3cc(NC(=O)C(N)C4CCCCC4)cc4c3C2=CNNC4=O)cn1 (centres undefined)	90.7	75.9	87.3	108	81.8	98.2	38.4	85.9	83.3	89.9	106	93.1	–
COc1cc2c(cc1O)CC[C@@H]1[C@@H]2CC[C@]2(C)[C@@H](O)CC[C@@H]12 [2-methoxyestradiol]	103	95	103	106	101	118	99.2	95.3	94.3	87.9	102	93.3	–
Cc1sc2c(c1C)C(c1ccc(Cl)cc1)=N[C@@H](CC(=O)OC(C)(C)C)c1nnc(C)n1-2 [(+)JQ1]	98.4	100	72.6	88.3	101	98.5	98.3	108	95.9	79.1	108	94.7	–
Oc1ncnc2[nH]ncc12 [Allopurinol]	94.5	98.5	94	104	102	90	103	110	109	107	105	108	–
O=C1CN2Cc3c(ccc(Cl)c3Cl)N=C2N1 [Anagrelide]	94.9	104	88	98.6	91.6	98.7	60.9	109	99.2	85.6	95.2	97	–
Nc1ncn([C@@H]2O[C@H](CO)[C@@H](O)[C@H]2O)c(=O)n1 [Azacitidine]	98.3	97	91.7	118	95.2	108	89.3	101	84.5	90.9	103	82.7	–
O=NN(CCCl)C(=O)NCCCl [Carmustine]	87.8	114	96.3	108	95	105	102	109	90.8	91.3	123	91.5	–
CC1=C2C[C@H]3[C@@H](CC=C4C[C@@H](O)CC[C@@]43C)[C@@H]2CC[C@]12O[C@@H]1C[C@H](C)CN[C@H]1[C@H]2C [Cyclopamine]	100	113	84.1	107	109	114	90.8	123	84.9	88.2	94.4	113	–
CC(=O)O[C@@]12CO[C@@H]1C[C@H](O)[C@@]1(C)C(=O)[C@H](O)C3=C(C)[C@@H](OC(=O)[C@H](O)[C@@H](NC(=O)OC(C)(C)C)c4ccccc4)C[C@@](O)([C@@H](OC(=O)c4ccccc4)[C@H]21)C3(C)C [Docetaxel]	–	–	–	–	–	–	–	–	–	–	–	–	normalised viability ([1]; 10 nM): 32.2% and 27.2%; normalised viability ([2]; 10 nM): 110% and 108%; normalised viability ([3]; 10 nM): 13.1% and 18.8%; normalised viability ([4]; 1 nM): 86% and 95.2%; normalised viability ([5]; 1 nM): 88.3% and 86.5%; normalised viability ([6]; 1 nM): 101% and 90.4%; normalised viability ([7]; 10 nM): 6.91% and 8.46%; normalised viability ([8]; 1 nM): 85.9% and 66.5%; normalised viability ([9]; 10 nM): 34.8% and 32.6%; normalised viability ([10]; 10 nM): 32.1% and 30.1%; normalised viability ([11]; 10 nM): 50% and 41.6%; normalised viability ([12]; 1 nM): 99.2% and 81.9%
C[C@]12CC[C@@H]3c4ccc(OC(=O)N(CCCl)CCCl)cc4CC[C@H]3[C@@H]1CC[C@@H]2O [Estramustine]	–	–	–	–	–	–	–	–	–	–	–	–	normalised viability ([1]; 9.9 nM): 101%; normalised viability ([2]; 9.9 nM): 91.4%; normalised viability ([3]; 9.9 nM): 102%; normalised viability ([4]; 0.99 nM): 85.1%; normalised viability ([5]; 0.99 nM): 111%; normalised viability ([6]; 0.99 nM): 88.3%; normalised viability ([7]; 9.9 nM): 106%; normalised viability ([8]; 0.99 nM): 100%; normalised viability ([9]; 9.9 nM): 93.8%; normalised viability ([10]; 9.9 nM): 102%; normalised viability ([11]; 9.9 nM): 108%; normalised viability ([12]; 0.99 nM): 113%
CC1(C)CNc2cc(NC(=O)c3cccnc3NCc3ccncc3)ccc21 [Motesanib]	90.5	101	90.8	90.4	91.4	111	79.3	82.7	79.2	71.9	113	82.5	–
